Results as given in US6015560A, “Antibody recognizing endothelial cell ligand for leukocyte CR3” (priority 1995, dated 2000).

Key:
leukocytes in CSF [1] = assay: Leukocyte and protein influx into CSF of rabbits challenged with pneumococci; assay type: in vivo, rabbit; conditions: intravenous, meningitis model
Source text: This inhibitory activity implies that antibodies to FHA which bind to any of the three Factor X regions would disturb leukocyte recruitment. This is to be distinguished from anti-FHA antibodies that bind to endothelia by recognizing an integrin receptor which is an endothelial cell component (see below). […] This is shown in FIG. 6 where various doses of antibody were given to rabbits and the number of leukocytes recruited into the cerebrospinal fluid in response to pneumonoccal meningitis was determined.
Rabbits were inoculated intracisternally with 10^8 pneumococci and the generation of an inflammatory response in cerebrospinal fluid (CSF) was followed over time by measuring the appearance of leukocytes and protein in CSF. Animals were treated with the antibodies intravenously (2 mg/kg of culture supernatant fluid) at the same time as the intracisternal challenge was given.

neutrophils = assay: Inhibition of 125I-Factor X binding to neutrophils; design: species or system human
Method: Human Factor X (Sigma or Hematologic Technologies Inc.) was labeled with ^125 I using Iodogen (Pierce Chemical Co.) Human neutrophils were isolated from heparinized blood according to the manufacturer's specification using Neutrophil Isolation Medium (Cardinal Associates, Santa Fe, N.Mex.) and washed three times with 5 mM EDTA-phosphate-bufferedsaline (PBS), pH 7.2, at 4° C. To eliminate platelet contamination,neutrophils were incubated with autologous serum containing 5 mM EDTA for 30 mins. at 37° C., washed three times with ice-cold PBS, pH 7.2, and resuspended in RPMI 1640 tissue culture medium (Whittaker M. A. Bioproducts, Walkersville, Md.) at 4° C. Binding of ^125 I-Factor X to neutrophils was measured based on a method described by Altieri et al. (1991) Science 254: 1200-1202. Briefly, 200 μl of neutrophils (1.5×10^7 /ml) were supplemented with 17.5 μl of 50 mM CaCl2, stimulated with 3.5 μl of 100 μM NH2 -formyl-Met-Leu-Phe (Sigma), and mixed with 30 μl of 10.3 μg/ml ^125 I-Factor X and 100 μl of 1.75 mM of peptide. […] Aliquots of the supernatant (cell free ^125 I-Factor X) and the cell pellet (cell bound ^125 I-Factor X) were counted in a gamma-counter. Nonspecific binding (~50,000 cpm) was determined by adding a 100 fold excess of unlabeled Factor X, and subtracted from total radioactivity (~500,000 cpm for controls).

leukocytes in CSF [2] = assay: Rabbit meningitis model: leukocyte migration into CSF; assay type: in vivo
Method: (§1) The rabbit model was performed according to an established protocol. Specific pathogen free, New Zealand white rabbits (2 kg; Hare Marland, Nutley, N.J.) were anesthetized with valium (2.5 mg/kg, subcutaneously, Hoffman-LaRoche, Nutley, N.J.), ketamine (35 mg/kg, intramuscularly, Aveco, Fort Dodge, Iowa) and xylazine (5 mg/kg, intramuscularly, Miles Laboratories, Shawnee, Kans.) and a helmet of dental acrylic was affixed to the calvarium. Twenty four hours later, the rabbits were anesthetized with ethyl carbamate (1.75 g/kg; Aldrich Chemical Co., Milwaukee, Wis.) and pentobarbital (15 mg/kg; Abbott Laboratories, Abbott Park, Ill.) and placed in a stereotaxic frame. A spinal needle was introduced into the cisterna magna and 300 μl of CSF was withdrawn. The animals were challenged intracisternally with 10^8 heat killed, unencapsulated pneumococcus strain R6 introduced in 200 μl of saline (time 0). One hour later, animals were treated with peptides dissolved in 1 ml of saline by intravenous injection into the right marginal ear vein. The concentration of FHA was 0.1 μM and that of the FHA Ia, Factor X II, and scrambled FHA II peptides was 10 μM. For the acetyl-FHA II, acetyl/amide-FHA II, dimer of FHA II and trimer of FHA II peptides, the concentration was 10^-3 μM. The concentration of FHA II is given in the results section. Samples of CSF were withdrawn at hourly intervals after pneumococcal inoculation and leukocyte density was measured using a cell counter (Coulter Electronics Inc., Hialeah, Fla.). CSF samples were centrifuged at 10,000×g for 5 minutes and the supernatant was stored at -70° C. until assayed for protein concentration using the bicinchoninic acid method (BCA Kit, Pierce Chemical Co., Rockford, Ill.) and for lactate concentration (Lactate Detection Kit, Sigma, St. Louis, Mo.). Statistically significant differences between treatments were determined by a one way analysis of variance test.
The anti-inflammatory effects of the administered peptides were assessed in the rabbit model for meningitis by the procedures described in Example 10. The animals received 1 ml of 1 uM peptide intravenously. In a slight departure from the protocol described in Example 10, samples of blood were drawn from the left marginal ear vein 30 minutes after the administration of the peptides to determine peripheral leukocyte concentrations.

blood brain barrier = assay: Rabbit meningitis model: CSF protein and lactate (blood brain barrier permeability); assay type: in vivo
Method: as §1
Loss of barrier function of the cerebral capillary endothelium during inflammation is reflected by an influx of serum proteins into the CSF. […] To examine if the peptides were able to ameliorate these measures of cerebral injury, CSF protein and lactate concentrations were measured hourly in peptide-treated and control animals (Table 10).
Leukocyte migration into the CSF in bacterial meningitis is associated with loss of barrier function of the cerebral capillary endothelium, resulting in influx of serum proteins into the CSF. To determine whether FHA peptides were able to prevent this leukocyte-dependent injury, protein concentrations in the CSF were measured throughout the course of inflammation in peptide-treated and control animals.

[3] = 6 hours, peptides 10 μM, FHA 0.1 μM

filamentous hemagglutinin [native FHA]
leukocyte influx into / inflammation of CSF (in words) (leukocytes in CSF [1]): decreases inflammation | IC50 (neutrophils): 100 nM | inhibition of 125I-Factor X binding to neutrophils (neutrophils; native FHA 0.3 μM): 70±4% | anti-inflammatory effect (in words) (leukocytes in CSF [2]; 10^-3 μM i.v.): ineffective | mean leukocyte concentration in CSF (leukocytes in CSF [2]; 7 hours, FHA 0.1 μM (25 μg) i.v.): 2096±450 /μl CSF | leukocyte density vs control (in words) (leukocytes in CSF [2]; 7 hours, 10^-1 μM): statistically significantly different from control | reduction of CSF leukocytosis (leukocytes in CSF [2]; peptides 10 μM, FHA 0.1 μM): > 60% | protein influx into CSF and lactate generation (in words) (blood brain barrier; 10 μM peptides, 0.1 μM FHA): significantly protective for protein influx and lactate generation | Total protein in CSF (blood brain barrier; 6 hours): 1.70 ± 0.33 mg/mL | Lactate in CSF (blood brain barrier; [3]): 25.0 ± 5.3 mg/100 ml | Protein in CSF (blood brain barrier; [3]): 1.3 ± 0.3 mg/ml CSF | Total protein in CSF (blood brain barrier; 7 hours): 1.86 ± 0.76 mg/mL
